Laboratory results published in US20230339866A1, “Quinazoline compounds and the use thereof in the treatment of cancer” (TROBIO THERAPEUTICS PTY LTD, priority 2020, published 2023).
pIC50: −log10 of the molar value.

Columns and labels:
PC3 (prostate) = assay: Anti-proliferative activity against PC3 prostate cancer cells; assay type: cell-based; conditions: 72 h exposure
Protocol: (§1) The ability of compounds of the invention to inhibit the proliferation of cancer cells representative of non-small cell lung cancer and ovarian cancer (Table 2), pancreatic cancer, colorectal cancer and prostate cancer (Table 3) was assessed. Briefly, a predetermined number of cells as calculated from cell growth assays for each of the cell lines employed were seeded into their respective culture medium (using ATCC culture parameters—http://www.atcc.org) and cultured for 24 h at 37° C. and 5% CO2 in 96-well culture plates. Once attached, each cell line was then exposed to various concentrations of each respective analogue (30, 10, 3, 1, 0.3 and 0.1 μM), cultured for a further 72 h and exposed to Cell-Titre luminescent reagent (100 μL/well) for a further 30 min. Luminescence was captured using an EnVision multilabel reader and the data for each analogue concentration compared against no treatment control. Cell viability was normalised to control (vehicle alone) and dose response curves, and half maximal effective concentration (EC50) values were determined using Graph Pad Prism 6 (nonlinear regression sigmoidal dose-response variable slope).

[1] = tested on: Tpm3.1-containing actin microfilaments; assay: Disruption of Tpm3.1-containing actin microfilaments in SK-N-SH cells (imaging and quantitation); assay type: cell-based; conditions: SK-N-SH cells expressing Tpm3.1-mCherry, 24 hours, two concentrations
Protocol: The ability of compounds 57, 87 and 92 to disrupt Tpm3.1-containing actin microfilaments was investigated in SK-N-SH neuroblastoma cells that express Tpm3.1 labelled with the mCherry fluorophore. Cells were seeded at 3×10^4 cells per well in a volume of 1000 μL complete media onto a 12 well plate containing 13 mm coverslips and left to plate down for 24 hours prior to treatment. Cells were then treated with DMSO and two concentrations of the test compounds. 24 hours post-treatment, cells were fixed with 16% paraformaldehyde (PBS) and stained with 488-Atto-Phalloidin to visualise the actin filament bundles. Single plane images were obtained using the Olympus IX83 epi-fluorescence microscope. Ten fields of view were collected for both Tpm3.1 mCherry fluorophore (FIG. 4) and 488-Atto-Phalloidin (FIG. 5) with each treatment condition.
Quantitation of either Tpm3.1 mCherry filaments or 488-Atto-Phalloidin filaments was performed using ImageJ 1.52p software (ImageJ, NIH). The mean pixel intensity from a cell was measured by using a line across the entire cell cytoplasmic area above or below the nuclear region. The line was made to cross the filament bundles at a […] for the measurement rather than run along a single filament. A total of n=100 cells were measured from ten fields of view. Cells with pixel intensities that were more than twice the average intensity in the field were excluded from the measurement. The mean pixel intensity from n=100 cells was imported into Microsoft Excel to obtain the average intensity of either Tpm3.1 mCherry filaments or 488-Atto-Phalloidin filaments from each treatment condition. Values were normalised as a percent of the 0 μM control in order to generate a bar graph.

MIA PaCa-2 (pancreatic) = assay: Anti-proliferative activity against MIA PaCa-2 pancreatic cancer cells; assay type: cell-based; conditions: Homo sapiens, 72 h exposure
Protocol: as §1

A2780 (ovarian) = assay: Anti-proliferative activity (Cell-Titre luminescence) against A2780 ovarian cancer cells; assay type: cell-based; conditions: Homo sapiens, A2780, 72 h, 72 h exposure, Cell-Titre luminescent reagent
Method in brief: (§2)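 Cells grown 24 h at 37 °C, 5% CO2, then exposed 72 h to compound at 30, 10, 3, 1, 0.3 and 0.1 μM. Viability by Cell-Titre luminescence (30 min), normalised to vehicle; EC50 from variable-slope sigmoidal nonlinear regression.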

[2] = tested on: SK-N-SH neuroblastoma cells; assay: Anti-proliferative activity (MTS assay) against SK-N-SH neuroblastoma cells; assay type: cell-based; conditions: Homo sapiens, SK-N-SH, 72 h
Protocol: The ability of compounds of the disclosure to inhibit the proliferation of SK-N-SH neuroblastoma cells was also assessed. […] Cell viability was normalised to control (vehicle alone) and dose response curves and IC50 values (Table 4) were determined using Graph Pad Prism 6.

A549 (NSCLC) = assay: Anti-proliferative activity (Cell-Titre luminescence) against A549 non-small cell lung cancer cells; assay type: cell-based; conditions: Homo sapiens, A549, 72 h, 72 h exposure, Cell-Titre luminescent reagent
Method in brief: as §2

Caco-2 (colorectal) = assay: Anti-proliferative activity against Caco-2 colorectal cancer cells; assay type: cell-based; conditions: Homo sapiens, 72 h exposure
Protocol: as §1

[3] = tested on: A2780 ovarian cancer cells; conditions: Bliss score
Protocol: (§3) The A2780 cell line was maintained as a monolayer in Dulbeccos Modified Eagles medium (DMEM) supplemented with 10% foetal bovine serum (FBS) and grown at 37° C. in a humidified atmosphere with 5% CO2. […] Each screening plate contained one 6×6 dose matrix for two drugs using two-fold dilution steps. […] Viability was measured after 72 hours using a standard MTS assay.
(§4) Synergistic drug interactions were determined for each pairwise drug combination by applying the Bliss-independence model that assumes independence of drug mechanisms.
(§5) The Bliss additivism model was used to calculate a predicted combined response C to two single agents with responses A and B (using GI values), as follows:
(§6) The final score for any combination was reported as the difference between the value predicted by the additive model and the experimentally observed value, normalised to 100. Using GI values the maximum possible synergy score is 100, with 0 indicating no synergy and negative indicating possible antagonism. Scores were also reported as a “Max synergy” score, which is the highest individual synergy score for each combination matrix, and a “Total synergy” score, which was obtained by summation of each individual synergy score for the matrix.

[4] = tested on: A2780 ovarian cancer cells; assay: cells; conditions: Homo sapiens, A2780, 72 h, read-out: IC50 values used for the dose matrix (compounds)
Protocol: as §3, §4, §5, §6

CCc1ccc(CCNc2nc(NCCN3CCN(C)CC3)c3ccccc3n2)cc1 [Compound 57, N^2-(4-ethylphenethyl)-N^4-(2-(4-methylpiperazin-1-yl)ethyl)quinazoline-2,4-diamine]
IC50 (PC3 (prostate)): 1.48 µM
Disruption of Tpm3.1-containing actin microfilaments [1]: disrupt Tpm3.1-containing actin microfilaments in a dose-dependent manner
IC50 (MIA PaCa-2 (pancreatic)): 1.02 µM
IC50 (A2780 (ovarian)): 0.655 µM
IC50 [2]: 1.11 µM
IC50 (A549 (NSCLC)): 1.53 µM
IC50 (Caco-2 (colorectal)): 1.12 µM

Fc1cccc(CCNc2nc(NCCc3c[nH]cn3)c3ccccc3n2)c1 [Compound 87, N^4-(2-(1H-imidazol-4-yl)ethyl)-N^2-(3-fluorophenethyl)quinazoline-2,4-diamine]
Paclitaxel Max. Synergy ([3]; combination with paclitaxel, highest individual score of 6×6 matrix): 9.54
Paclitaxel Total Synergy ([3]; combination with paclitaxel, sum over matrix): 28.53
Vinorelbine Max. Synergy ([3]; combination with vinorelbine, highest individual score of 6×6 matrix): 24.46
Vinorelbine Total Synergy ([3]; combination with vinorelbine, sum over matrix): 160.51
IC50 (PC3 (prostate)): 4.12 µM
Disruption of Tpm3.1-containing actin microfilaments [1]: disrupt Tpm3.1-containing actin microfilaments in a dose-dependent manner
pIC50 [4]: 5.52
IC50 (MIA PaCa-2 (pancreatic)): 2.75 µM
IC50 (A2780 (ovarian)): 2.6 µM
IC50 [2]: 1.38 µM
IC50 (A549 (NSCLC)): 2.36 µM
IC50 (Caco-2 (colorectal)): 4.33 µM
